Reference: the supplement of paper PMC10307832

Assays:
Assay in all cases: relative viability (nuclei count vs DMSO), 5 days (fraction); higher = more cells survive
201T = system: 201T
Summary of the method: (§1)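 Relative viability equals treated-well nuclei counts divided by vehicle-well nuclei counts. Counts came from 4× images of lung cancer cell lines grown in 1536-well plates for 5 days after pin-tool dosing on the day after seeding. Dosing used one drug alone or a fixed anchor-drug dose plus five library-drug doses (not always all listed) in √10 steps, and values are medians of duplicate plates.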

A-427 = system: A-427
Summary of the method: as §1

ABC-1 = system: ABC-1
Summary of the method: as §1

BEN = system: BEN
Summary of the method: as §1

CAL-12T = system: CAL-12T
Summary of the method: as §1

H3255 = system: H3255
Summary of the method: as §1

HCC-15 = system: HCC-15
Summary of the method: as §1

LC-2-ad = system: LC-2-ad
Summary of the method: as §1

LCLC-97TM1 = system: LCLC-97TM1
Summary of the method: as §1

NCI-H1651 = system: NCI-H1651
Summary of the method: as §1

NCI-H1792 = system: NCI-H1792
Summary of the method: as §1

NCI-H1915 = system: NCI-H1915
Summary of the method: as §1

NCI-H1944 = system: NCI-H1944
Summary of the method: as §1

NCI-H2087 = system: NCI-H2087
Summary of the method: as §1

NCI-H441 = system: NCI-H441
Summary of the method: as §1

NCI-H460 = system: NCI-H460
Summary of the method: as §1

NCI-H596 = system: NCI-H596
Summary of the method: as §1

NCI-H650 = system: NCI-H650
Summary of the method: as §1

NCI-H727 = system: NCI-H727
Summary of the method: as §1

PC-3 [JPC-3] = system: PC-3 [JPC-3]
Summary of the method: as §1

C[C@@H]1CN(CC(=O)Nc2ccc3c(c2)Cc2cccc(-c4cc(=O)cc(N5CCOCC5)o4)c2S3)C[C@H](C)O1 + NC(=O)Nc1cc(-c2cccc(F)c2)sc1C(=O)N[C@H]1CCCNC1 [AZD7762] (partner 0.2 µM)
relative viability (201T; first compound 0.04 µM): 0.5
relative viability (201T; first compound 0.1265 µM): 0.544
relative viability (201T; first compound 0.4 µM): 0.586
relative viability (201T; first compound 4 µM): 0.478
relative viability (A-427; first compound 0.04 µM): 0.855
relative viability (A-427; first compound 0.1265 µM): 0.831
relative viability (A-427; first compound 0.4 µM): 0.73
relative viability (A-427; first compound 4 µM): 0.635
relative viability (ABC-1; first compound 0.1265 µM): 0.742
relative viability (ABC-1; first compound 0.4 µM): 1.52
relative viability (ABC-1; first compound 4 µM): 0.971
relative viability (BEN; first compound 0.04 µM): 0.612
relative viability (BEN; first compound 0.1265 µM): 0.566
relative viability (BEN; first compound 0.4 µM): 0.625
relative viability (BEN; first compound 4 µM): 0.645
relative viability (CAL-12T; first compound 0.04 µM): 0.644
relative viability (CAL-12T; first compound 0.1265 µM): 0.565
relative viability (CAL-12T; first compound 0.4 µM): 0.594
relative viability (CAL-12T; first compound 4 µM): 0.38
relative viability (H3255; first compound 0.04 µM): 0.792
relative viability (H3255; first compound 0.1265 µM): 0.765
relative viability (H3255; first compound 0.4 µM): 0.943
relative viability (H3255; first compound 4 µM): 0.725
relative viability (HCC-15; first compound 0.04 µM): 1.18
relative viability (HCC-15; first compound 0.1265 µM): 1.06
relative viability (HCC-15; first compound 0.4 µM): 1.37
relative viability (HCC-15; first compound 4 µM): 1.05
relative viability (LC-2-ad; first compound 0.04 µM): 0.838
relative viability (LC-2-ad; first compound 0.1265 µM): 0.758
relative viability (LC-2-ad; first compound 0.4 µM): 0.86
relative viability (LC-2-ad; first compound 4 µM): 0.807
relative viability (LCLC-97TM1; first compound 0.1265 µM): 0.222
relative viability (LCLC-97TM1; first compound 0.4 µM): 0.231
relative viability (LCLC-97TM1; first compound 4 µM): 0.221
relative viability (NCI-H1651; first compound 0.04 µM): 0.428
relative viability (NCI-H1651; first compound 0.1265 µM): 0.405
relative viability (NCI-H1651; first compound 0.4 µM): 0.464
relative viability (NCI-H1651; first compound 4 µM): 0.38
relative viability (NCI-H1792; first compound 0.04 µM): 0.662
relative viability (NCI-H1792; first compound 0.1265 µM): 0.638
relative viability (NCI-H1792; first compound 0.4 µM): 0.564
relative viability (NCI-H1792; first compound 4 µM): 0.314
relative viability (NCI-H1915; first compound 0.04 µM): 0.575
relative viability (NCI-H1915; first compound 0.1265 µM): 0.727
relative viability (NCI-H1915; first compound 0.4 µM): 0.735
relative viability (NCI-H1915; first compound 4 µM): 0.515
relative viability (NCI-H1944; first compound 0.1265 µM): 0.561
relative viability (NCI-H1944; first compound 0.4 µM): 0.605
relative viability (NCI-H1944; first compound 4 µM): 0.396
relative viability (NCI-H2087; first compound 0.04 µM): 1.26
relative viability (NCI-H2087; first compound 0.1265 µM): 1.17
relative viability (NCI-H2087; first compound 0.4 µM): 1.46
relative viability (NCI-H2087; first compound 4 µM): 0.954
relative viability (NCI-H441; first compound 0.04 µM): 1.28
relative viability (NCI-H441; first compound 0.1265 µM): 1.16
relative viability (NCI-H441; first compound 0.4 µM): 1.02
relative viability (NCI-H441; first compound 4 µM): 1.01
relative viability (NCI-H460; first compound 0.04 µM): 0.617
relative viability (NCI-H460; first compound 0.1265 µM): 0.638
relative viability (NCI-H460; first compound 0.4 µM): 0.63
relative viability (NCI-H460; first compound 4 µM): 0.368
relative viability (NCI-H596; first compound 0.04 µM): 1.12
relative viability (NCI-H596; first compound 0.1265 µM): 1.1
relative viability (NCI-H596; first compound 0.4 µM): 1.1
relative viability (NCI-H596; first compound 4 µM): 1.06
relative viability (NCI-H650; first compound 0.04 µM): 0.981
relative viability (NCI-H650; first compound 0.1265 µM): 0.853
relative viability (NCI-H650; first compound 0.4 µM): 1.21
relative viability (NCI-H650; first compound 4 µM): 0.895
relative viability (NCI-H727; first compound 0.04 µM): 0.525
relative viability (NCI-H727; first compound 0.1265 µM): 0.625
relative viability (NCI-H727; first compound 0.4 µM): 0.501
relative viability (NCI-H727; first compound 4 µM): 0.7
relative viability (PC-3 [JPC-3]; first compound 0.04 µM): 0.777
relative viability (PC-3 [JPC-3]; first compound 0.1265 µM): 0.739
relative viability (PC-3 [JPC-3]; first compound 0.4 µM): 0.796
relative viability (PC-3 [JPC-3]; first compound 4 µM): 0.669

CC(C)Oc1cc(Nc2nc(N[C@@H](C)c3ccc(F)cn3)ncc2Cl)n[nH]1 [AZ23] + NC(=O)Nc1cc(-c2cccc(F)c2)sc1C(=O)N[C@H]1CCCNC1 [AZD7762] (partner 0.2 µM)
relative viability (201T; first compound 0.01 µM): 0.321
relative viability (201T; first compound 0.03162 µM): 0.576
relative viability (201T; first compound 0.3162 µM): 0.743
relative viability (A-427; first compound 0.01 µM): 0.462
relative viability (A-427; first compound 0.03162 µM): 0.724
relative viability (A-427; first compound 0.3162 µM): 1.01
relative viability (ABC-1; first compound 0.03162 µM): 1.23
relative viability (ABC-1; first compound 0.3162 µM): 0.835
relative viability (BEN; first compound 0.01 µM): 0.659
relative viability (BEN; first compound 0.03162 µM): 0.759
relative viability (BEN; first compound 0.3162 µM): 0.746
relative viability (CAL-12T; first compound 0.01 µM): 0.614
relative viability (CAL-12T; first compound 0.03162 µM): 0.689
relative viability (CAL-12T; first compound 0.3162 µM): 0.717
relative viability (H3255; first compound 0.01 µM): 0.828
relative viability (H3255; first compound 0.03162 µM): 0.958
relative viability (H3255; first compound 0.3162 µM): 0.931
relative viability (HCC-15; first compound 0.01 µM): 1.43
relative viability (HCC-15; first compound 0.03162 µM): 1.34
relative viability (HCC-15; first compound 0.3162 µM): 1.35
relative viability (LC-2-ad; first compound 0.01 µM): 1.04
relative viability (LC-2-ad; first compound 0.03162 µM): 1.05
relative viability (LC-2-ad; first compound 0.3162 µM): 1.02
relative viability (LCLC-97TM1; first compound 0.01 µM): 0.239
relative viability (LCLC-97TM1; first compound 0.03162 µM): 0.327
relative viability (LCLC-97TM1; first compound 0.3162 µM): 0.175
relative viability (NCI-H1651; first compound 0.01 µM): 0.376
relative viability (NCI-H1651; first compound 0.03162 µM): 0.541
relative viability (NCI-H1651; first compound 0.3162 µM): 0.623
relative viability (NCI-H1792; first compound 0.01 µM): 0.595
relative viability (NCI-H1792; first compound 0.03162 µM): 0.515
relative viability (NCI-H1792; first compound 0.3162 µM): 0.904
relative viability (NCI-H1915; first compound 0.01 µM): 0.758
relative viability (NCI-H1915; first compound 0.03162 µM): 0.737
relative viability (NCI-H1915; first compound 0.3162 µM): 0.796
relative viability (NCI-H1944; first compound 0.01 µM): 0.413
relative viability (NCI-H1944; first compound 0.03162 µM): 0.532
relative viability (NCI-H1944; first compound 0.3162 µM): 0.646
relative viability (NCI-H2087; first compound 0.01 µM): 1.6
relative viability (NCI-H2087; first compound 0.03162 µM): 1.41
relative viability (NCI-H2087; first compound 0.3162 µM): 1.32
relative viability (NCI-H441; first compound 0.01 µM): 1.17
relative viability (NCI-H441; first compound 0.03162 µM): 1.03
relative viability (NCI-H441; first compound 0.3162 µM): 1.33
relative viability (NCI-H460; first compound 0.01 µM): 0.722
relative viability (NCI-H460; first compound 0.03162 µM): 0.751
relative viability (NCI-H460; first compound 0.3162 µM): 0.799
relative viability (NCI-H596; first compound 0.01 µM): 1.02
relative viability (NCI-H596; first compound 0.03162 µM): 1.04
relative viability (NCI-H596; first compound 0.3162 µM): 1.03
relative viability (NCI-H650; first compound 0.01 µM): 0.954
relative viability (NCI-H650; first compound 0.03162 µM): 1.14
relative viability (NCI-H650; first compound 0.3162 µM): 1.12
relative viability (NCI-H727; first compound 0.01 µM): 0.628
relative viability (NCI-H727; first compound 0.03162 µM): 0.802
relative viability (NCI-H727; first compound 0.3162 µM): 0.597
relative viability (PC-3 [JPC-3]; first compound 0.01 µM): 0.663
relative viability (PC-3 [JPC-3]; first compound 0.03162 µM): 0.837
relative viability (PC-3 [JPC-3]; first compound 0.3162 µM): 0.77
